According to patent publication US6410588B1, “Use of cannabinoids as anti-inflammatory agents” (priority 1998, dated 2002):
“Also recorded” adds a separate entry of the source. Where two headings read alike, the source gives them in different places.

Assays:
[1] = system: animal models predictive of antipsychotic activity; conditions: in vivo; cited from earlier work
TNFα = conditions: cited from earlier work
PBQ-induced writhing = conditions: orally at doses up to 10 mg/kg; cited from earlier work
TNFα production = TNFα production by Thioglycollate induced macrophages; type: cell-based, mouse (C57BL/6); set-up: TNFα production, 6 h / TNFα production, 24 h: unit not given here; conditions: for inhibition at 2 µg/mL / inhibition at 4 µg/mL / inhibition at 6 µg/mL: Mus musculus, Macrophage
Text: […] […] IFN-γ and IFN-α were purchased from Boehringer Mannheim, Germany.
Thioglycoiate-elicited peritoneal macrophages from C57BL/6 mice.

[2] = system: ROI production by granulocytes; assay: ROI production by granulocytes, luminol-enhanced chemiluminescence response to zymosan; type: cell-based, mouse (C57BL/6)
Method: Thioglycollate-elicited granulocytes were harvested from C57BL/6 mice by sterile lavage with PBS 18 hrs. after intraperitoneal injection with 1.5 ml thioglycollate medium (1.5 ml in 3% solution). The cells were washed and resuspended at 5×10^5 cells/ml in Hanks' buffered salt solution without phenol red, and distributed at 0.5 ml/tube into luminometer plastic tubes. […] The tube was inserted into luminometer (Biolumate LB 95 oot Berhold Wildbad Germany) which had been prewarmed to 37° C. The granulocyte luminol-enhanced chemiluminescence response to zymosan was considered as the positive control.

TNF = assay: human rheumatoid synovial cell TNF production (ELISA); type: cell-based; conditions: for TNF, mean: 48 hours culture
Method: Synovial membrane tissue was obtained from a patient fulfilling the revised American College of Rheumatology criteria for rheumatoid arthritis who underwent joint replacement surgery. Synovial cell cultures were prepared as described. Briefly, synovial membrane tissue was digested with collagenase type A (1 mg/ml) and DNAase I (0.15 mg/ml) in RPMI 1640 containing 5% FCS for 2 hours at 37° C.
Similarly, rheumatoid synovial cells spontaneously produce cytokines when cultured in vitro. […] With restricted number of human synovial cells in this sample, the optimal dose for inhibiting TNFα may have been missed.

[3] = system: collagen induced arthritis (CIA); assay: acute CIA model, oral feeding of CBD; type: in vivo, mouse; conditions: 10 days
Method: The drug was administered by oral gavage. Control mice were fed vehicle (olive oil) along, as described in Materials and Methods. Results are expressed as a mean+/−SEM.
The doses used were 10 mg/kag, 25 mg/kg and 50 mg/kg (n=6 per group), corresponding to 2, 5, and 10 mg/kg i.p. respectively. Control mice were fed olive oil (n=6).

TNFα release = assay: spontaneous TNF release by murine synovial cells from arthritic mice; type: cell-based, mouse (DBA/1); conditions: for O.D. (cytotoxicity assay for TNF) / TNF: supernatants after 24 h
Method: DBA/1 mice which had been immunized with bovine CII in CFA, to induce CIA, as discussed above, were sacrificed at day 10 of arthritis and the knee joints were removed. Synovial cell cultures were performed as previously described. Briefly, synovial membranes were excised under a dissecting microscope and digested with collagenase A (1 mg/ml) (Boehringer-Mannheim) and DNAase type IV (0.15 mg/ml) (Sigma, Dorset, UK) at 37° C. for 20 minutes, in. the presence of polymyxin B (33 μg/ml) (Sigma). […] Supernatants were collected after 24 h. and stored at −20° C. until measured for cytokines.
Well cytotoxicity assay was used.

IL-2 = conditions: cited from earlier work
Legionella = conditions: mouse, in vivo; cited from earlier work
chronic CIA = chronic CIA model (mouse CII), CBD i.p.; type: in vivo; conditions: 5 weeks
Method: Results are expressed as a mean of 6 mice. The AUC for the control group is 38.4, and for the 5 mg/kg group 28.9.
For the chronic experiments, 6 weeks old mice were immunized with mouse CII (100 μg CII i.d.=intradermal). From day 30 after immunization onwards, the mice developed a chronic relapsing arthritis, which was monitored for 5 weeks, in the same way as described above.
For the chronic experiment with mouse CII, mice were treated from the first symptoms of arthritis every other day, for 5 weeks. […] Again, mice injected with Vehicle alone served as controls (n=7). For the oral route, the treatment was administered daily at a dose of 25 mg/kg (n=6) and control mice were fed olive oil (n=6).

[4] = LPS 1 μg/ml + IFNγ 10 U/ml, CBD 2 μg/ml, 24 h

Structure (SMILES): C=C(C)[C@@H]1CCC(C)=C[C@H]1c1c(O)cc(CCCCC)cc1O [CBD, Cannabidiol]
- efficacy in animal models predictive of antipsychotic activity [1]: effective
- TNFα production (TNFα): decreased
- PBQ-induced writhing (PBQ-induced writhing): inhibited PBQ-induced writhing
- TNFα production, 6 h (TNFα production; LPS 1 μg/ml + IFNγ 10 U/ml, CBD 2 μg/ml, 6 h): 744
- % INHIBITION of TNFα production, 24 h (TNFα production; [4]): enhanced 72%
- TNFα production, 24 h (TNFα production; [4]): 4578
- TNFα production, 6 h (TNFα production; LPS 1 μg/ml + IFNγ 10 U/ml, CBD 4 μg/ml, 6 h): 478
- TNFα production, 6 h (TNFα production; LPS 1 μg/ml + IFNγ 10 U/ml, CBD 6 μg/ml, 6 h): 548
- TNFα production, 24 h (TNFα production; LPS 1 μg/ml + IFNγ 10 U/ml, CBD 4 (μg/ml), 24 h): 437
- TNFα production, 24 h (TNFα production; LPS 1 μg/ml + IFNγ 10 U/ml, CBD 6 (μg/ml), 24 h): 207
- TNFα production, 6 h (TNFα production; LPS 1 μg/ml, CBD 2 μg/ml, 6 h): 543
- TNFα production, 6 h (TNFα production; LPS 1 μg/ml, CBD 4 μg/ml, 6 h): 271
- TNFα production, 6 h (TNFα production; LPS 1 μg/ml, CBD 6 μg/ml, 6 h): 290
- TNFα production, 24 h (TNFα production; LPS 1 μg/ml, CBD 2 (μg/ml), 24 h): 90
- TNFα production, 24 h (TNFα production; LPS 1 μg/ml, CBD 4 (μg/ml), 24 h): 36
- TNFα production, 24 h (TNFα production; LPS 1 μg/ml, CBD 6 (μg/ml), 24 h): 34
- inhibition at 2 µg/mL (TNFα production; 6 h, LPS 1 μg/ml + IFNγ 10 U/ml, CBD 2 μg/ml, 6 h, read-out: % INHIBITION of TNFα production, 6 h): 0%
- inhibition at 4 µg/mL (TNFα production; 6 h, LPS 1 μg/ml + IFNγ 10 U/ml, CBD 4 μg/ml, 6 h, read-out: % INHIBITION of TNFα production, 6 h): 33%
- inhibition at 6 µg/mL (TNFα production; 6 h, LPS 1 μg/ml + IFNγ 10 U/ml, CBD 6 μg/ml, 6 h, read-out: % INHIBITION of TNFα production, 6 h): 24%
- inhibition at 2 µg/mL (TNFα production; 6 h, LPS 1 μg/ml, CBD 2 μg/ml, 6 h, read-out: % INHIBITION of TNFα production, 6 h): 9%
- inhibition at 4 µg/mL (TNFα production; 6 h, LPS 1 μg/ml, CBD 4 μg/ml, 6 h, read-out: % INHIBITION of TNFα production, 6 h): 54%
- inhibition at 6 µg/mL (TNFα production; 6 h, LPS 1 μg/ml, CBD 6 μg/ml, 6 h, read-out: % INHIBITION of TNFα production, 6 h): 51%
- inhibition at 4 µg/mL (TNFα production; 24 h, LPS 1 μg/ml + IFNγ 10 U/ml, CBD 4 μg/ml, 24 h, read-out: % INHIBITION of TNFα production, 24 h): 84%
- inhibition at 6 µg/mL (TNFα production; 24 h, LPS 1 μg/ml + IFNγ 10 U/ml, CBD 6 μg/ml, 24 h, read-out: % INHIBITION of TNFα production, 24 h): 92%
- inhibition at 2 µg/mL (TNFα production; 24 h, LPS 1 μg/ml, CBD 2 μg/ml, 24 h, read-out: % INHIBITION of TNFα production, 24 h): 67%
- inhibition at 4 µg/mL (TNFα production; 24 h, LPS 1 μg/ml, CBD 4 μg/ml, 24 h, read-out: % INHIBITION of TNFα production, 24 h): 87%
- inhibition at 6 µg/mL (TNFα production; 24 h, LPS 1 μg/ml, CBD 6 μg/ml, 24 h, read-out: % INHIBITION of TNFα production, 24 h): 88%
- effect on TNFα production (in words) (TNFα production; low concentrations of CBD): enhance TNFα production
- effect on TNFα production (in words) (TNFα production; summary of Table 1): inhibits TNFα production
- Chemiluminescence computer peak ([2]; Zymozan + CBD 5 μg/ml (1 h)): 157
- Chemiluminescence computer peak ([2]; Zymozan + CBD 6 μg/ml (0 h)): 1024
- Chemiluminescence computer peak ([2]; Zymozan + CBD 6 μg/ml (2 h)): 235
- TNF, mean (TNF; CBD 0.1 μg/ml): 1963 pg/mL
- TNF, mean (TNF; CBD 1 μg/ml): 2089 pg/mL
- TNF, mean (TNF; CBD 20 μg/ml): 2271 pg/mL
- TNFa release (in words) (TNF; first initial experiment): not suppressed
- suppression of arthritis (in words) ([3]; 25 mg/kg daily oral gavage): significantly better than the control group; also recorded: optimal dose
- suppression of arthritis (in words) ([3]; daily oral gavage after onset of arthritis): adequate suppression of the arthritis
- O.D. (cytotoxicity assay for TNF) (TNFα release; CBD 1 μg/ml): 0.190 ± 0.003
- TNF (TNFα release; CBD 1 μg/ml): >1000 pg/mL
- O.D. (cytotoxicity assay for TNF) (TNFα release; CBD 2.5 μg/ml): 0.193 ± 0.004
- TNF (TNFα release; CBD 2.5 μg/ml): >1000 pg/mL
- O.D. (cytotoxicity assay for TNF) (TNFα release; CBD 5 μg/ml): 0.422 ± 0.251
- TNF (TNFα release; CBD 5 μg/ml): 100 pg/mL
- O.D. (cytotoxicity assay for TNF) (TNFα release; CBD 10 μg/ml): 0.922 ± 0.103
- TNF (TNFα release; CBD 10 μg/ml): 2 pg/mL
- TNF (TNFα release; CBD 20 μg/ml): <0.01 pg/mL
- O.D. (cytotoxicity assay for TNF) (TNFα release; CBD 50 μg/ml): 1.163 ± 0.119
- TNF (TNFα release; CBD 50 μg/ml): <0.01 pg/mL
- spontaneous TNF release (in words) (TNFα release; CBD added to in vitro cultures): dose-dependent suppression of TNF release
- IL-2 secretion (IL-2): did not affect IL-2 secretion
- mortality of mice sublethally injected with Legionella (Legionella): not affected
- suppression of chronic arthritis (in words) (chronic CIA; 5 mg/kg i.p.): optimal in suppressing the arthritis
- area under the curve (AUC) of arthritis score (chronic CIA; 5 mg/kg i.p., control group 38.4): 28.9
- suppression of chronic arthritis (in words) (chronic CIA; 10 mg/kg i.p.): less effective than 5 mg/kg
